Measured values as given in EP4321514B1, “COMPOUND HAVING ALK INHIBITORY ACTIVITY, PREPARATION METHOD THEREFOR AND USE THEREOF” (CGeneTech (Suzhou, China) Co., Ltd., priority 2021, dated 2022).

Columns and labels:
ALK kinase = target: T1, ALK kinase (Homo sapiens, UniProt Q9UM73); assay: ALK kinase inhibition test; assay type: biochemical; settings: 0.4 ng/well ALK kinase, 5 µM ATP, fluorescence 665 nm/615 nm
T1 construct: purchased Thermo Scientific
Experimental: The inhibitory activity of the compound in the present application on ALK kinase will be determined through in vitro tests, which can be represented by IC50 value.
4 µL of the diluted solution of the test compound and 2 µL of 0.4 ng/well ALK kinase solution (Thermo Scientific) were added into reaction wells in turn, incubated for 10 min at room temperature, then 4 µL of 0.7 µM biotin-labeled tyrosine kinase substrate and 5 µM ATP solution were added to start the kinase reaction.
Software Graphpad Prism 6 was used to fit an IC50 curve and calculate an IC50 value.

[1] = tested on: human anaplastic large cell lymphoma cell Karpas 299; assay: ALK gene fusion cell proliferation inhibition test (CCK-8); assay type: cell-based; settings: 72 hours incubation, CCK-8, absorbance at 450 nm
Experimental: The 96-well culture plate was placed in a 5 % carbon dioxide incubator at 37 °C to be cultured overnight. A test compound was formulated into a 10 mM storage solution with DMSO, and the 10mM storage solution was gradually diluted with DMSO at a dilution ration of 1:4 to obtain 9 concentration gradients of solutions of the test compound. The test compound was diluted with culture medium to 5 times the set final concentration of corresponding action, and the diluted solution of the test compound was added at 25 µL/well to corresponding cell wells according to the set compound layout, and then incubated in a 5 % carbon dioxide incubator at 37 °C for 72 hours. After 72 hours, 10 µL of CCK-8 was added into a cell culture medium, and the culture solution was sucked from adherent cells, then a freshly prepared CCK-8 detection solution was added and the cells were incubated in a 37 °C incubator for 1-4 hours. The absorbance at 450 nm wavelength on the SpectraMax i3X Microplate Reader was measured after gently shaking, with the absorbance at 650 nm as a reference.

T1 sequence (Q9UM73 19-1620): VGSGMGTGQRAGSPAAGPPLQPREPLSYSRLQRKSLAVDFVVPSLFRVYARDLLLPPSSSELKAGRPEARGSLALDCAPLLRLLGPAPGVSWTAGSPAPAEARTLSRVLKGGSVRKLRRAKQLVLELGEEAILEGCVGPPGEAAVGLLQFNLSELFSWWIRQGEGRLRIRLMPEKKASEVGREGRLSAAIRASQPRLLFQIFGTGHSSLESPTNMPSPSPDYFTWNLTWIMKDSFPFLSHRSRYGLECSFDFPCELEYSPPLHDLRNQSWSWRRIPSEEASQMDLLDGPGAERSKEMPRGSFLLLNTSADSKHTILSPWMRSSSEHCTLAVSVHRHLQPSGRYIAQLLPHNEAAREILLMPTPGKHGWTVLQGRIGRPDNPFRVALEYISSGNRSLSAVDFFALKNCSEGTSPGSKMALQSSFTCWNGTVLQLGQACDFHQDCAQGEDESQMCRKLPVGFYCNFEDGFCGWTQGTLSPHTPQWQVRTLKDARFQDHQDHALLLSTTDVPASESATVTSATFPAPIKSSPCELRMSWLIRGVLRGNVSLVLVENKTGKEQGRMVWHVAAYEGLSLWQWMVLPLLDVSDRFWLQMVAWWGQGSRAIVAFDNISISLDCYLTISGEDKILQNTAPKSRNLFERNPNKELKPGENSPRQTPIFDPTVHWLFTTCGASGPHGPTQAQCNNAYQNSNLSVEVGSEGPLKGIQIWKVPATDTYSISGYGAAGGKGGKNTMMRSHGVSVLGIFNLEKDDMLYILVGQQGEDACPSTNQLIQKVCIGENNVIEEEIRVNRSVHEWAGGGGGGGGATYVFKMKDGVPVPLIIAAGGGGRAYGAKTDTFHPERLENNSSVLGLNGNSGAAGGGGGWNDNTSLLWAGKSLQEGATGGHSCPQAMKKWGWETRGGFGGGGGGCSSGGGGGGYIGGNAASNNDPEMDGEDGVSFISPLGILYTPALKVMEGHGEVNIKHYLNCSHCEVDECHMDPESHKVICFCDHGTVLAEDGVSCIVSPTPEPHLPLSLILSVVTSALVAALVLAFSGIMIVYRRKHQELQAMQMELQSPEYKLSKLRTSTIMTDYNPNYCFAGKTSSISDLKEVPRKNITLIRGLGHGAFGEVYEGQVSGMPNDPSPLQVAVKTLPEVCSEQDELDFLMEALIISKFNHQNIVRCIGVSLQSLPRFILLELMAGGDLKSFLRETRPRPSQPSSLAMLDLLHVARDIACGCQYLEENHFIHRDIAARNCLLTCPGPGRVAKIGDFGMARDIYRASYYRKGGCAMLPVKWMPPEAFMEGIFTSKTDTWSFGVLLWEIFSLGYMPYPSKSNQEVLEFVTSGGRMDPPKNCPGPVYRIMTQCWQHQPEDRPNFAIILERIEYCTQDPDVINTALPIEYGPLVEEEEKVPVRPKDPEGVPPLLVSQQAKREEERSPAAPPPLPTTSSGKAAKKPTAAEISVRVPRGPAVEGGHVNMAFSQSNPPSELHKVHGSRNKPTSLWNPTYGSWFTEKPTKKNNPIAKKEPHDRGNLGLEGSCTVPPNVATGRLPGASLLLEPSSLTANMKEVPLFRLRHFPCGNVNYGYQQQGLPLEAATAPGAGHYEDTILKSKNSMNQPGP

SMILES	IC50 (ALK kinase)	IC50 [1]
C#Cc1ccc2c3c([nH]c2c1)C(C)(C)c1cc(N2CCC(N4CCCC4)CC2)c(C#N)cc1C3=O [Example E14, 3-ethynyl-6,6-dimethyl-11-oxo-8-(4-(pyrrolidin-1-yl)piperidin-1-yl)-6,11-dihydro-5H-benzo[b]car bazole-9-carbonitrile]	0.00651 µM	0.0114 µM
C#Cc1ccc2c3c([nH]c2c1)C(C)(C)c1cc(C2CCN(C)CC2)c(CC)cc1C3=O [Example E9, 9-ethyl-3-ethynyl-6,6-dimethyl-8-(1-methylpiperidin-4-yl)-5,6-dihydro-11H-benzo[b]carbazol-11-one]	0.00811 µM	0.0542 µM
C#Cc1ccc2c3c([nH]c2c1)C(C)(C)c1cc(N2CCC(N4CCOCC4)CC2)c(C#N)cc1C3=O [Example E12, 3-ethynyl-6,6-dimethyl-8-(4-morpholinopiperidin-1-yl)-11-oxo-6,11-dihydro-5H-benzo[b]carbazole-9-carbonitrile]	0.00678 µM	0.00871 µM
C#Cc1ccc2c3c([nH]c2c1)C(C)(C)c1cc(N2CCN(C)CC2)c(CC)cc1C3=O [Example E2, 9-ethyl-3-ethynyl-6,6-dimethyl-8-(4-methylpiperazin-1-yl)-5,6-dihydro-11H-benzo[b]carbazol-11-one]	0.00739 µM	0.0181 µM
C#Cc1ccc2c3c([nH]c2c1)C(C)(C)c1cc(C2CCNCC2)c(CC)cc1C3=O [Example E8, 9-ethyl-3-ethynyl-6,6-dimethyl-8-(piperidin-4-yl)-5,6-dihydro-11H-benzo[b]carbazol-11-one]	0.0066 µM	0.109 µM
C#Cc1ccc2c3c([nH]c2c1)C(C)(C)c1cc(N2CCNCC2)c(Cl)cc1C3=O [Example E24, 9-chloro-3-ethynyl-6,6-dimethyl-8-(piperazin-1-yl)-5,6-dihydro-11H-benzo[b]carbazol-11-one]	0.00329 µM	0.0182 µM
C#Cc1ccc2c3c([nH]c2c1)C(C)(C)c1cc(N2CCC(NC)CC2)c(C#N)cc1C3=O [Example E28, 3-ethynyl-6,6-dimethyl-8-(4-(methylamino)piperidin-1-yl)-11-oxo-6,11-dihydro-5H-benzo[b]carb azole-9-carbonitrile]	0.00262 µM	0.005 µM
C#Cc1ccc2c3c([nH]c2c1)C(C)(C)c1cc(N2CCN(C)CC2)c(C#N)cc1C3=O [Example E13, 3-ethynyl-6,6-dimethyl-8-(4-methylpiperazin-1-yl)-11-oxo-6,11-dihydro-5H-benzo[b]carbazole-9-carbonitrile]	0.00576 µM	0.00752 µM
C#Cc1ccc2c3c([nH]c2c1)C(C)(C)c1cc(N2CCC(N4CCOCC4)CC2)c(Cl)cc1C3=O [Example E23, 9-chloro-3-ethynyl-6,6-dimethyl-8-(4-morpholinopiperidin-1-yl)-5,6-dihydro-11H-benzo[b]carbazol-11-one]	0.00261 µM	0.0222 µM
C#Cc1ccc2c3c([nH]c2c1)C(C)(C)c1cc(N2CCC(N(C)C)CC2)c(CC)cc1C3=O [Example E6, 8-(4-(dimethylamino)piperidin-1-yl)-9-ethyl-3-ethynyl-6,6-dimethyl-5,6-dihydro-11H-benzo[b]car bazol-11-one]	0.021 µM	0.107 µM
C#Cc1ccc2c3c([nH]c2c1)C(C)(C)c1cc(N2CCNCC2)c(CC)cc1C3=O [Example E7, 9-ethyl-3-ethynyl-6,6-dimethyl-8-(piperazin-1-yl)-5H-benzo[b]carbazol-11(6H)-one]	0.00741 µM	0.0403 µM
C#Cc1ccc2c3c([nH]c2c1)C(C)(C)c1cc(N2CCC(N(C)C)CC2)c(C#N)cc1C3=O [Example E15, 8-(4-(dimethylamino)piperidin-1-yl)-3-ethynyl-6,6-dimethyl-11-oxo-6,11-dihydro-5H-benzo[b]car bazole-9-carbonitrile]	0.00462 µM	0.00829 µM
C#Cc1ccc2c3c([nH]c2c1)C(C)(C)c1cc(N2CCN(C4CC4)CC2)c(C#N)cc1C3=O [Example E17, 8-(4-cyclopropylpiperazin-1-yl)-3-ethynyl-6,6-dimethyl-11-oxo-6,11-dihydro-5H-benzo[b]carbazole-9-carbonitrile]	0.049 µM	0.0332 µM
C#Cc1ccc2c3c([nH]c2c1)C(C)(C)c1cc(N2CCC(N(C)C)CC2)c(Cl)cc1C3=O [Example E21, 9-chloro-8-(4-(dimethylamino)piperidin-1-yl)-3-ethynyl-6,6-dimethyl-5,6-dihydro-11H-benzo[b]c arbazol-11-one]	0.0127 µM	0.0104 µM

The next lines start with the values.

IC50 (ALK kinase)	IC50 [1]	SMILES
0.0135 µM	0.00467 µM	C#Cc1ccc2c3c([nH]c2c1)C(C)(C)c1cc(N2CCC(N4CCN(C)CC4)CC2)c(Cl)cc1C3=O [Example E22, 9-chloro-3-ethynyl-6,6-dimethyl-8-(4-(4-methylpiperazin-1-yl)piperidin-1-yl)-5,6-dihydro-11H-be nzo[b]carbazol-11-one]
0.0378 µM	0.144 µM	C#Cc1ccc2c3c([nH]c2c1)C(C)(C)c1cc(N2CCN(C4CC4)CC2)c(CC)cc1C3=O [Example E3, 8-(4-cyclopropylpiperazin-1-yl)-9-ethyl-3-ethynyl-6,6-dimethyl-5,6-dihydro-11H-benzo[b]carbazol-11-one]
0.0103 µM	0.00171 µM	C#Cc1ccc2c3c([nH]c2c1)C(C)(C)c1cc(N2CCC(N4CCN(C5CC5)CC4)CC2)c(C#N)cc1C3=O [Example E18, 8-(4-(4-cyclopropylpiperazin-1-yl)piperidin-1-yl)-3-ethynyl-6,6-dimethyl-11-oxo-6,11-dihydro-5 H-benzo[b]carbazole-9-carbonitrile]
0.0205 µM	0.208 µM	C#Cc1ccc2c3c([nH]c2c1)C(C)(C)c1cc(C2CCN(C4CC4)CC2)c(CC)cc1C3=O [Example E10, 8-(1-cyclopropylpiperidin-4-yl)-9-ethyl-3-ethynyl-6,6-dimethyl-5,6-dihydro-11H-benzo[b]carbazol-11-one]
0.0499 µM	0.053 µM	C#Cc1ccc2c3c([nH]c2c1)C(C)(C)c1cc(N2CCC(N4CCC4)CC2)c(Cl)cc1C3=O [Example E25, 8-(4-(azetidin-1-yl)piperidin-1-yl)-9-chloro-3-ethynyl-6,6-dimethyl-5,6-dihydro-11H-benzo[b]car bazol-11-one]
0.0057 µM	0.00327 µM	C#Cc1ccc2c3c([nH]c2c1)C(C)(C)c1cc(N2CCC(N4CCN(C)CC4)CC2)c(C#N)cc1C3=O [Example E16, 3-ethynyl-6,6-dimethyl-8-(4-(4-methylpiperazin-1-yl)piperidin-1-yl)-11-oxo-6,11-dihydro-5H-ben zo[b]carbazole-9-carbonitrile]
0.0401 µM	0.0559 µM	C#Cc1ccc2c3c([nH]c2c1)C(C)(C)c1cc(N2CCN(C4CC4)CC2)c(Cl)cc1C3=O [Example E20, 9-chloro-8-(4-cyclopropylpiperazin-1-yl)-3-ethynyl-6,6-dimethyl-5,6-dihydro-11H-benzo[b]carbazol-11-one]
0.0138 µM	0.0249 µM	C#Cc1ccc2c3c([nH]c2c1)C(C)(C)c1cc(N2CCC(N4CCCC4)CC2)c(CC)cc1C3=O [Example E5, 9-ethyl-3-ethynyl-6,6-dimethyl-8-(4-(pyrrolidin-1-yl)piperidin-1-yl)-5,6-dihydro-11H-benzo[b]car bazol-11-one]
0.00635 µM	0.0326 µM	C#Cc1ccc2c3c([nH]c2c1)C(C)(C)c1cc(N2CCC(N4CCC4)CC2)c(CC)cc1C3=O [Example E4, 8-(4-(azetidin-1-yl)piperidin-1-yl)-9-ethyl-3-ethynyl-6,6-dimethyl-5,6-dihydro-11H-benzo[b]carbazol-11-one]
0.00509 µM	0.00734 µM	C#Cc1ccc2c3c([nH]c2c1)C(C)(C)c1cc(N2CCC(N4CCOCC4)CC2)c(CC)cc1C3=O [Example E1, 9-ethyl-3-ethynyl-6,6-dimethyl-8-(4-morpholinopiperidin-1-yl)-5,6-dihydro-11H-benzo[b]carbazol-11-one]
0.059 µM	0.186 µM	C#Cc1ccc2c3c([nH]c2c1)C(C)(C)c1cc(N2CCC(N4CCN(C5CC5)CC4)CC2)c(CC)cc1C3=O [Example E11, 8-(4-(4-cyclopropylpiperazin-1-yl)piperidin-1-yl)-9-ethyl-3-ethynyl-6,6-dimethyl-5,6-dihydro-11 H-benzo[b]carbazol-11-one]
0.0102 µM	0.11 µM	CC#Cc1ccc2c3c([nH]c2c1)C(C)(C)c1cc(N2CCC(N4CCOCC4)CC2)c(CC)cc1C3=O [Example E27, 9-ethyl-6,6-dimethyl-8-(4-morpholinopiperidin-1-yl)-3-(prop-1-yn-1-yl)-5,6-dihydro-11H-benzo[b]carbazol-11-one]
0.0384 µM	0.0206 µM	CCc1cc2c(cc1N1CCC(N3CCOCC3)CC1)C(C)(C)c1[nH]c3cc(C#CC4CC4)ccc3c1C2=O [Example E26, 3-(cyclopropylethynyl)-9-ethyl-6,6-dimethyl-8-(4-morpholinopiperidin-1-yl)-5,6-dihydro-11H-be nzo[b]carbazol-11-one]
